Source: paper PMC3745430, “Novel Multiplexed Assay for Identifying SH2 Domain Antagonists of STAT Family Proteins” (PLoS ONE, 2013)
Read-outs that look alike come from different tables or passages of the source.

Assays:
STAT5b(136–703) = target: T1, STAT5b(136–703) (Homo sapiens, UniProt P51692); assay: Multiplexed Alpha assay, STAT5b-SH2 binding (AlphaScreen)
T1 construct: 136 to 703 of human STAT5b; 6×His-tag (N); made in house; host or cells: E. coli BL-21 Star (DE3) pLysS co-transformed with pBirAcm
T1 sequence (P51692 136-703): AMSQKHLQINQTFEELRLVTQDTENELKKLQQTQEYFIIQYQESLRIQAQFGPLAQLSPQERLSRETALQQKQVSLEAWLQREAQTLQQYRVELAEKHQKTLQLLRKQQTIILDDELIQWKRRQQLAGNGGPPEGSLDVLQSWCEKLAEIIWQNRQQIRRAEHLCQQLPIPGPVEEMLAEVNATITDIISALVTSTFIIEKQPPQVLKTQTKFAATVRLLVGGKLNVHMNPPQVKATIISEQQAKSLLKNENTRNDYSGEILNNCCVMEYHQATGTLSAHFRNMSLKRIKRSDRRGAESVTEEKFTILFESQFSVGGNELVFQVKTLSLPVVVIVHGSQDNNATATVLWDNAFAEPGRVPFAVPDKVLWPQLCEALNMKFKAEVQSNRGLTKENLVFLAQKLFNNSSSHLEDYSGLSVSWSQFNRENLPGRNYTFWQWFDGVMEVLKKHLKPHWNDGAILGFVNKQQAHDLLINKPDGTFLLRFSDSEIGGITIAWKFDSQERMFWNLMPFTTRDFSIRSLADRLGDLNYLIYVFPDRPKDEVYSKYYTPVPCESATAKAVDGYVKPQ
Description: (§1) Both AlphaLISA and AlphaScreen are bead-based nonradioactive binding assay systems for detecting biomolecular interactions in a microplate format. The binding of the biological partners brings the donor and acceptor beads into close proximity, and AlphaLISA produces a specific signal around 615 nm and AlphaScreen emits a broad signal between 520 and 620 nm. The assays were performed in a final reaction volume of 25 µL of the assay buffer, which contained 10 mM HEPES-NaOH (pH 7.4), 50 mM NaCl, 1 mM EDTA (pH 8.0), 0.1% (w/v) NP-40, and 10 ng/µL (w/v) BSA in a 96-well microplate at 25°C. The labeled phosphotyrosyl (pTyr, pY) peptide probes were DIG-GpYLPQTV and FITC-GpYLVLDKW for STAT3 and STAT5b, respectively. In the single assay for STAT3 binding, 100 nM STAT3(136–705) protein was incubated with a test compound dissolved in DMSO for 30 min, and 1.0 nM DIG-GpYLPQTV was added and the mixture was incubated for 90 min. Streptavidin-coated donor beads (0.25 µg/well) and anti-DIG AlphaLISA acceptor beads (0.25 µg/well) were added and incubated for 90 min before the signals were measured with EnVison Xcite (PerkinElmer Life Sciences). In the single assay for STAT5b binding, 20 nM STAT5b(136–703) was incubated with a test compound for 30 min, and 1.0 nM FITC-GpYLVLDKW was added and incubated for 90 min. Streptavidin-coated donor beads (0.25 µg/well) and anti-FITC AlphaScreen acceptor beads (0.25 µg/well) were added and incubated for 90 min before the signals were measured with EnVison Xcite. In the multiplexed assay, 100 nM STAT3(136–705) and 20 nM STAT5b(136–703) were incubated with a test compound for 30 min, and 1.0 nM DIG-GpYLPQTV and 1.0 nM FITC-GpYLVLDKW were added and incubated for 90 min. Streptavidin-coated donor beads (0.50 µg/well), anti-DIG AlphaLISA (0.25 µg/well), and anti-FITC AlphaScreen acceptor beads (0.25 µg/well) were added and incubated for 90 min before the signals were measured with EnVison Xcite. AlphaLISA and AlphaScreen signals for measuring STAT3- and STAT5b-SH2 binding, respectively, can be separately measured by using a dysprosium 572 nm and a europium 615 nm narrow bandwidth filter. In inhibitory assays, these signals for the bound state and the free state were represented as 0% and 100% inhibition, respectively. The bound state was measured by incubating the labeled peptide and the protein without test compounds. The free state was measured by incubating the same mixture with an additional 10 µM non-labeled peptide contained phosphorylated tyrosine, which competitively binds to its corresponding protein. The IC50 value was calculated by Graph pad prism 4.0. The mean and the standard error (SEM) of IC50 values were determined from three independent experiments. The Z’ value was calculated using the equation Z’ = 1–(3×SD_bound +3×SD_free)/(Signal_bound – Signal_free). STAT1 and Grb2 binding assays were performed as described in previous report. In the assays for selectivity of Compound 1, 100 pM biotinylated DIG or 100 pM biotinylated FITC was incubated with 10 µM or 30 µM Compound 1 for 30 min. Streptavidin-coated donor beads (0.25 µg/well) and anti-DIG AlphaLISA acceptor beads (0.25 µg/well) or anti-FITC AlphaScreen acceptor beads (0.25 µg/well) were added and incubated for 90 min before the signals were measured with EnVison Xcite.

STAT3(136–705) = target: T2, STAT3(136–705) (Homo sapiens, UniProt P40763); assay: Multiplexed Alpha assay, STAT3-SH2 binding (AlphaLISA)
T2 construct: amino acids 136 to 705 of human STAT3 and 136 to 703 of human STAT5b; 6×His-tag (N); made in house; host or cells: E. coli BL-21 Star (DE3) pLysS co-transformed with pBirAcm
Description: as §1

[1] = system: STAT3 nuclear translocation in HeLa cells; assay: STAT3 nuclear translocation assay in oncostatin M-stimulated HeLa cells; assay type: cell-based
Description: The Cellomics STAT3 Activation Kit (Thermo Scientific) was used for the nuclear translocation assay. HeLa cells were incubated in a 96-well microplate for 24 h. Cells were pretreated with the test compounds for 1 hour, and 30 ng/mL (w/v) of oncostatin M was applied and the mixture was incubated for 10 min. The subsequent procedures were performed according to the manufacturer’s instructions. The cells were scanned with an ArrayScan VTI reader (Thermo Scientific), and analyzed with the Cytoplasm to Nucleus Translocation Application. The mean fluorescent values in the nuclei were calculated. The signals for vehicle treatment and no treatment (without oncostatin M) were represented as 100% and 0%, respectively, and the relative signal intensity was also calculated.

JAK2 = system: JAK2; set-up: method as in PMID 11934592; conditions: in vitro assay; cited from earlier work
JAK3 = system: JAK3; set-up: method as in PMID 11934592; conditions: in vitro assay; cited from earlier work
TYK2 = system: TYK2; set-up: method as in PMID 11934592; conditions: in vitro assay; cited from earlier work
[2] = multiplexed binding assay, mean and SEM, three independent experiments, read-out: IC50 STAT5b-SH2 binding (STAT5b)
[3] = multiplexed binding assay, mean and SEM, three independent experiments, read-out: IC50 STAT3-SH2 binding (STAT3)

T2 sequence (P40763 136-705): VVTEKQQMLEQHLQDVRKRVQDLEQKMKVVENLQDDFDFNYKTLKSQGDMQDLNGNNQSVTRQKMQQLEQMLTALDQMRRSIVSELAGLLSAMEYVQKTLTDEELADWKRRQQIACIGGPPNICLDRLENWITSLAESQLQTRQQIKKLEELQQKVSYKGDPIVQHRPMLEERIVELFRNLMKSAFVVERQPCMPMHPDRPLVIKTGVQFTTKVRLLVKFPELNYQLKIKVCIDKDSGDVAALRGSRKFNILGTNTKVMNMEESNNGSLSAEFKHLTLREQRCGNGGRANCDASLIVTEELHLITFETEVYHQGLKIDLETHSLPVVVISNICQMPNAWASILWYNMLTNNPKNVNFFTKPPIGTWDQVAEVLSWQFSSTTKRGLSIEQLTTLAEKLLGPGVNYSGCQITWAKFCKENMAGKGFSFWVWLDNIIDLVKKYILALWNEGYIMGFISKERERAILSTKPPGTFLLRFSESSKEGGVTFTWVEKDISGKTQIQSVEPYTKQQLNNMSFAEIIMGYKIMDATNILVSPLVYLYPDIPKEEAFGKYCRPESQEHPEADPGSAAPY

SMILES | IC50 (STAT5b(136–703); [2]) | IC50 (STAT3(136–705); [3]) | other results
CCOc1ccccc1NC1=C(Cl)C(=O)c2ccccc2C1=O [Compound 2] | 1.4 ± 0.019 µM | 1.5 ± 0.052 µM | Increase in inhibitory activity against STAT5b in comparison with Compound 1 (STAT5b(136–703); multiplexed assay): ~8 fold; Increase in inhibitory activity against STAT3 in comparison with Compound 1 (STAT3(136–705); multiplexed assay): approximately 3 fold
CC(=O)NC1=C(Cl)C(=O)c2ccccc2C1=O [Compound 4] | > 30 µM | 23 ± 0.68 µM | –
O=C1C(Cl)=C(Cl)C(=O)c2ccccc21 [Compound 5] | 20 ± 0.33 µM | 12 ± 0.59 µM | –
O=C1C(Cl)=C(N2CCOCC2)C(=O)c2ccc(S(=O)(=O)N3CCOCC3)cc21 [Compound 6] | 13 ± 0.38 µM | 3.8 ± 0.064 µM | –
CN1CCN(C2=C(Cl)C(=O)c3ccccc3C2=O)CC1 [Compound 7] | > 30 µM | > 30 µM | Effect on STAT3 nuclear translocation ([1]; HeLa cells, pretreatment before oncostatin M (Figure 6, Figure S9)): did not inhibit
CC(C)(C)c1nc2c3cc[nH]c(=O)c3c3cc(F)ccc3c2[nH]1 [JAK inhibitor 1] | – | – | Fluorescent intensity of STAT3 in the nuclei, of the vehicle treatment ([1]; 1 µM, positive control, HeLa): 61%; IC50 (JAK2): […]; IC50 (JAK3): […]; IC50 (TYK2): […]
O=C(NN=Cc1coc2ccccc2c1=O)c1cccnc1 [STAT5 inhibitor, N′-((4-Oxo-4H-chromen-3-yl)methylene)nicotinohydrazide, reference compound] | – | – | IC50 (STAT5b(136–703); multiplexed assay, read-out: IC50 for STAT5b-SH2 binding): 2.8 µM; IC50 (STAT3(136–705); multiplexed assay, read-out: IC50 for STAT3-SH2 binding): 161 µM
